Test system: Candida albicans
Conditions: sodium thiosulfate alone in MRS medium, 1 g/l and 3 g/l, regardless of the concentration studied

Q: How did the “antifungal potential on Candida albicans growth” value turn out when `O=S(O)(O)=S` [sodium thiosulfate] was run?
A: Its value is “No antifungal potential”.

Source: patent publication US20220062330A1, “USE OF THIOSULFATE TO POTENTIATE THE ANTI-PATHOGENIC EFFECT OF LACTOBACILLI” (NEXBIOME THERAPEUTICS, priority 2012, published 2022)
